According to US20250213649A1, “PEPTIDE HAVING ANTI-INFLAMMATORY AND ANTI-FIBROTIC ACTIVITIES AND USE THEREOF” (CAREGEN CO., LTD., priority 2022, published 2025):

How the values were obtained:
[1] = tested on: MRC-5 cells; test: Western blotting of LPS-induced inflammatory cytokine/signaling proteins, MRC-5 cells; type: cell-based; settings: 5 μg/ml LPS, peptide 10, 50, 100, 500 μM, 24 hours, Western blot (FIG. 3)
Protocol: MRC-5 cells (lung fibroblast cells) were seeded at 2×10^5 cells/well in a 6-well plate and used in the experiment. After culturing for 1 day with a culture medium containing 10% FBS, the culture medium was replaced with a culture medium without containing FBS to induce starvation for 4 hours. Cells of a normal group without being treated with any substances, a group treated with 5 μg/ml of LPS (Sigma Aldrich) (negative control group), groups treated with 5 μg/ml of LPS and the peptide of Production Example 1 (10, 50, 100, 500 μM), and a group treated with 5 μg/ml of LPS and 10 μM of Dexamethasone (DEX) (positive control group) were treated with active substances and drugs respectively and then cultured for 24 hours. The cultured cells of each treatment group and control group were lysed by adding a lysis buffer, and then centrifugation was carried out at 4° C. at 12,000 rpm for 30 minutes to obtain proteins, which were subsequently quantified using a BCA Protein Assay kit (Sigma). The proteins were subjected to SDS-PAGE (sodium dodecyl sulfate-polyacrylamide gel electrophoresis) and then subjected to electrotransfer to a membrane. The membrane to which the proteins were attached was treated with 5% skim milk for blocking and then subjected to a reaction with a primary antibody overnight at 4° C. After washing with PBS-T, the membrane was subjected to a reaction with a secondary antibody at room temperature for 1 hour, washed again with PBS-T, and then visualized by a Western detection reagent (Elpis Biotech, Daejeon, Korea) using Gel Doc (Bio-Rad, Hercules, CA, USA). The antibodies used in the experiment are as follows. An Anti-IL-1β antibody (Cell signaling technology (CST), USA), an anti-IL-6 antibody (Santa Cruz Biotechnology, USA), an anti-pJNK antibody (Santa Cruz Biotechnology, USA), an anti-pERK antibody (Cell signaling technology (CST), USA), and an anti-β-Actin antibody (Santa Cruz Biotechnology, USA).

[2] = tested on: A549 cells; test: ELISA of inflammatory cytokine proteins induced by IL-1β, A549 cells; type: cell-based, human; settings: IL-1β 2 ng/ml, peptide 10, 50, 100, 500 μM, 72 hours, culture supernatant (FIG. 9a-9c)
Protocol: A549 cells (human alveolar basal epithelial cells) were seeded at 2×10^5 cells/well in a 12-well plate and used in the experiment. After culturing for 1 day with a culture medium containing 10% FBS, the culture medium was replaced with a culture medium without containing FBS to induce starvation for 4 hours. Cells of a normal group (NON) without being treated with any substances, a group treated with IL-1β (2 ng/ml) (negative control group, NC), groups treated with IL-1β (2 ng/ml) and the peptide of Production Example 1 (10, 50, 100, 500 μM), and a group treated with IL-1β (2 ng/ml) and Dexamethasone (DEX) (10 μM) (positive control group) were treated with active substances and drugs respectively, and then cultured for 72 hours. After cell culture, the supernatant obtained by centrifuging the culture solution at 4° C. and 3,000 rpm for 10 minutes was subjected to ELISA analysis using an IL-6 Quantikine ELISA Kit (R&D systems), an IL-8 Quantikine ELISA Kit (R&D systems), and an IL-1β Quantikine ELISA Kit (R&D systems) according to the method of use in the kit instructions, and then the absorbance was measured at 450 nm using a microplate reader.

[3] = tested on: BALB/c mice; test: LPS-induced acute lung inflammation model, cell counts in bronchoalveolar lavage fluid; type: in vivo; settings: BALB/c female mice, LPS 10 μg intranasal, peptide 0.5 mg, 1 mg intranasal 1 hour after LPS, 24 hours (FIG. 10a, 10b)
Protocol: (§1) BALB/c mice (Female/7W) were used in animal experiments, and an acute lung inflammation model was established by injection of LPS. As shown in [Table 5] below, 7-week-old BALB/c female mice were divided into 5 groups of 5 mice each, and then the experiment was carried out. On the 1st day, LPS (10 μg/50 μl/mouse) was administered intranasally to the G2 to G5 groups. 1 hour after LPS administration, the G3 and G4 groups were subjected to intranasal administration with the peptide of Production Example 1 (0.5 mg, 1 mg), and the G5 positive control group was subjected to intraperitoneal administration with Dexamethasone (100 μg). 24 hours after the administration of the active substance and the drug, the mice were sacrificed to obtain the bronchoalveolar lavage fluid and the lung tissue, which were used in the next analysis.
After anesthetizing the mouse, the treatment area was disinfected with 70% ethanol. […] The separated cells were resuspended in 0.5 ml of PBS, subsequently diluted with trypan blue solution at a 1:1 ratio, and then the total number of cells was counted using a hematocytometer. […] After staining, cells were observed and counted through a microscope, and then the number of immune cells with respect to the total number of cells was calculated to show the results as a graph.

[4] = tested on: BALB/c mice; test: LPS-induced acute lung inflammation model, ELISA of pro-inflammatory proteins in BALF; type: in vivo; settings: BALB/c female mice, LPS 10 μg intranasal, peptide 0.5 mg, 1 mg intranasal, 24 hours (FIG. 11a-11d)
Protocol: as §1
The collected BALF was subjected to the ELISA analysis of pro-inflammatory proteins. The supernatant obtained by centrifuging the collected BALF at 3,000 rpm for 10 minutes was subjected to analysis using a TNF-α Quantikine ELISA kit (R&D systems), an IL-1β Quantikine ELISA kit (R&D systems), an IL-6 Quantikine ELISA kit (R&D systems), and a Myeloperoxidase (MPO) Quantikine ELISA Kit (R&D systems) according to the instructions for use, and then the absorbance was measured at 450 nm using a microplate reader.

[5] = BLM-induced pulmonary fibrosis model, body weight change; type: in vivo; settings: BALB/c male mice with BLM-induced pulmonary fibrosis, peptide 1 mg/mouse intranasal three times a week for 14 days from 7th day (FIG. 13a)
Protocol: As shown in [Table 6] below, 8-week-old BALB/c male mice were divided into 4 groups of 5 mice each. On the 1st day, a Bleomycin solution ([…]/50 μl/mouse) was administered through the oropharynx to carry out one time of induction with BLM. Then, from the 7th day, the peptide of Production Example 1 (1 mg/mouse) was administered intranasally three times a week for 14 days, and Pirfeninone (2 mg/mouse) for a positive control group was administered orally three times a week for 14 days. On the 21st day of the induction with BLM, mice were sacrificed to obtain the bronchoalveolar lavage fluid and the lung tissue, which were used in the next analysis.

KYLLVHRPYYRR [peptide of Production Example 1]
expression of IL-1β (protein) [1]: decreased again the expression of IL-1β, IL-6, pJNK, and pERK in a concentration-dependent manner | expression of IL-6 (protein) [1]: decreased again the expression of IL-1β, IL-6, pJNK, and pERK in a concentration-dependent manner | expression of pERK [1]: decreased again the expression of IL-1β, IL-6, pJNK, and pERK in a concentration-dependent manner | expression of pJNK [1]: decreased again the expression of IL-1β, IL-6, pJNK, and pERK in a concentration-dependent manner | expression level of IL-1β (ELISA) [2]: decreases the expression levels of IL-1B, IL-6, and IL-8 in a concentration-dependent manner | expression level of IL-6 (ELISA) [2]: decreases the expression levels of IL-1B, IL-6, and IL-8 in a concentration-dependent manner | expression level of IL-8 (ELISA) [2]: decreases the expression levels of IL-1B, IL-6, and IL-8 in a concentration-dependent manner | number of macrophages in bronchoalveolar lavage fluid [3]: not increased or decreased | number of neutrophils in bronchoalveolar lavage fluid [3]: significantly reduced the increased number of neutrophils in a concentration-dependent manner | expression level of IL-1β in BALF (ELISA) [4]: reduced the increased expression levels of the cytokines in a concentration-dependent manner | expression level of IL-6 in BALF (ELISA) [4]: reduced the increased expression levels of the cytokines in a concentration-dependent manner | expression level of Myeloperoxidase (MPO) in BALF (ELISA) [4]: reduced the increased expression levels of the cytokines in a concentration-dependent manner | expression level of TNF-α in BALF (ELISA) [4]: reduced the increased expression levels of the cytokines in a concentration-dependent manner | body weight [5]: recovered again
